Experimental data reported in US20140057877A1, “Therapeutic polyamine compositions and their synthesis” (priority 2002, published 2014).
Where two headings read alike, the source gives them in different places.

Assays:
[1] = test system: E. coli (GM 7359) alkA tag E. coli mutant; assay: Bacterial survival, toxin streptozotocin and antidotes; settings: 60 minutes
Method: (§2) Bacteria were inoculated and cultured in nutrient agar for eighteen hours, using a shaking incubator at 140 r.p.m and 35° C. Medium contained 10 mM HEPES buffer at pH 7. Cells were centrifuged twice in Sorval RC-5 centrifuge 12,000 r.pm.×15 minutes at 4° C. and washed twice in 10 uM HEPES buffer. The resuspended cells were counted using a Hemocrit and diluted to a level of 5×10^1 cells per ml in 10 μM HEPES. The cells, the following toxins; methyl viologen (paraquat), methyl viologen (MPP^+), rotenone, daizoxide, streptozotocin and alloxan, and antidotes were added, reaching final volumes of 1 ml in Eppendorf tubes and placed on a rotator at room temperature. 10 μM diethylenetriaminepentaacetic acid was added to the samples to terminate the reactions at the specified times of either twenty or sixty minutes. 300 μL of cells were plated on Petri plates containing nutrient agar and incubated at 35° C. overnight. Colonies were counted after 20 hours. Percentage survival as compared with culture controls is calculated from the means of triplicates in each experimental group.

[2] = test system: E. coli (GM 7359) alkA tag E. coli mutant; settings: 60 minutes
Method: as §2

[3] = test system: E. coli (GM 7359) alkA tag E. coli mutant; settings: 60 minutes; remark: listed apart in the source
Method: as §2

[4] = pKa by potentiometric titration; type: physicochemical; settings: aqueous solution, ionic strength 0.10, 25° C.
Method: PKa's were determined by standard potentiometric titration methods in aqueous solution with an ionic strength of 0.10 at 25° C. Values are reported as log K values of the equilibrium constant.

[5] = Oil water partition coefficients (octanol/water, HPLC); type: physicochemical; settings: for lipid water partitioning, in words: passage through gastrointestinal barrier and blood brain barrier
Method: Partition coefficients were determined by dissolving the compound in a 1:1 mixture of octanol/water and shaking the solution for 12 hours. HPLC was used to determine the partition coefficient. The reported values are the log of the octanol/water partition

M. Luteus (ATCC 499732) = assay: Bacterial survival, toxin diazoxide and antidotes
Method: as §2

S. aureus (ATCC 29213) [6] = assay: Bacterial survival, toxin diazoxide and antidotes; type: cell-based; settings: 60 minutes
Method: (§1) Medium contained 10 mM HEPES buffer at pH 7. […] Colonies were counted after 20 hours.

[7] = cited from earlier work
S. aureus (ATCC 29213) [8] = type: cell-based
Method: as §1

E. coli (ATCC 35150) = type: cell-based; settings: 60 minutes
Method: as §1

[9] = test system: MPTP induced dopamine loss; settings: previously reported; cited from earlier work
[10] = 0.15 mM Diazoxide + 2.5 uM antidote
[11] = 0.15 mM Diazoxide + 5 uM antidote
[12] = 1:1 octanol/water, shaken 12 hours, HPLC

SMILES: c1ccc(CNCCCNCc2ccccn2)nc1 [2,3,2-pyridine, (2-pyridylmethyl){3-[(2-pyridylmethyl)amino]propyl}amine]
- Mean % Survival ([1]; 100 uM Streptozotocin + 2.5 uM antidote): 100%
- Mean % Survival ([1]; 100 uM Streptozotocin + 5 uM antidote): 100%
- Mean % Survival ([1]; 100 uM Streptozotocin + 20 uM antidote): 100%
- Mean % Survival ([1]; substance alone 20 uM): 100%
- Mean % Survival ([2]; 100 uM Rotenone + 2.5 uM antidote): 100%
- Mean % Survival ([2]; 100 uM Rotenone + 5 uM antidote): 100%
- Mean % Survival ([2]; 100 uM Rotenone + 20 uM antidote): 100%
- Mean % Survival ([2]; 100 uM Rotenone + 50 uM antidote): 100%
- Mean % Survival ([2]; substance alone 50 uM): 100%
- Mean % Survival ([3]; 2 mM Alloxan + 10 uM antidote): 100%
- Mean % Survival ([3]; substance alone 10 uM): 100%
- pKa ([4]; read-out: pKa(1)): 8.3
- pKa ([4]; read-out: pKa(2)): 7.4
- logP at 12 h ([5]; octanol/water (1:1), 1:1 octanol/water, shaken 12 hours, HPLC, read-out: Log Partition Coefficient Octanol:Water): 2.7
- lipid water partitioning, in words [5]: optimal lipid water partitioning
- Mean % Survival (M. Luteus (ATCC 499732); 0.2 mM Diazoxide + 2.5 uM antidote, T20): 96%
- Mean % Survival (M. Luteus (ATCC 499732); 0.2 mM Diazoxide + 2.5 uM antidote, T60): 99%
- Mean % Survival (M. Luteus (ATCC 499732); 0.2 mM Diazoxide + 5 uM antidote, T20): 93%
- Mean % Survival (M. Luteus (ATCC 499732); 0.2 mM Diazoxide + 5 uM antidote, T60): 100%
- Mean % Survival (M. Luteus (ATCC 499732); 0.2 mM Diazoxide + 10 uM antidote, T20): 100%
- Mean % Survival (M. Luteus (ATCC 499732); 0.2 mM Diazoxide + 10 uM antidote, T60): 100%
- Mean % Survival (M. Luteus (ATCC 499732); 0.2 mM Diazoxide + 20 uM antidote, T20): 100%
- Mean % Survival (M. Luteus (ATCC 499732); 0.2 mM Diazoxide + 20 uM antidote, T60): 100%
- Mean % Survival (M. Luteus (ATCC 499732); 0.2 mM Diazoxide + 40 uM antidote, T20): 100%
- Mean % Survival (M. Luteus (ATCC 499732); 0.2 mM Diazoxide + 40 uM antidote, T60): 70%
- Mean % Survival (M. Luteus (ATCC 499732); substance alone 40 uM, T20 (20 minutes)): 100%
- Mean % Survival (M. Luteus (ATCC 499732); substance alone 40 uM, T60 (60 minutes)): 100%
- Mean % Survival (S. aureus (ATCC 29213) [6]; [10]): 61%
- Mean % Survival (S. aureus (ATCC 29213) [6]; [11]): 84%
- Mean % Survival (S. aureus (ATCC 29213) [6]; substance alone 5 uM): 99%

SMILES: NCCNCCNCCN [2,2,2-tetramine, reference compound]
- Mean % Survival ([2]; 100 mM Rotenone + 0.5 mM antidote): 67%
- Mean % Survival ([2]; 100 mM Rotenone + 2 mM antidote): 100%
- Mean % Survival ([2]; substance alone 2 mM): 100%
- pKa(1) [4]: 9.7
- pKa(2) [4]: 9.1
- pKa(3) [4]: 6.6
- pKa(4) [4]: 3.3
- Log Partition Coefficient Octanol:Water [5, 12]: 1.6
- lipid water partitioning, in words [5]: optimal lipid water partitioning
- half life in vivo [7]: only a few hours
- metabolism and excretion, in words ([7]; in vivo): rapidly metabolized to acetyl 2,2,2-tetramine and rapidly excreted

SMILES: NCCNCCCNCCN [2,3,2-tetramine, 1,3-bis-[(2′-aminoethyl)-amino]propane]
- pKa(1) [4]: 10.3
- pKa(2) [4]: 9.5
- pKa(3) [4]: 7.3
- pKa(4) [4]: 6.0
- Log Partition Coefficient Octanol:Water [5, 12]: 2.1
- lipid water partitioning, in words [5]: optimal lipid water partitioning
- Mean % Survival (S. aureus (ATCC 29213) [8]): 78%
- Mean % Survival (S. aureus (ATCC 29213) [8]; 0.5 mM Paraquat + 1 mM antidote, 60 minutes): 80%
- Mean % Survival (S. aureus (ATCC 29213) [8]; substance alone 1 mM, 60 minutes): 100%
- Mean % Survival (E. coli (ATCC 35150); 1.0 mM Paraquat + 1.0 mM antidote): 100%
- Mean % Survival (E. coli (ATCC 35150); substance alone 1 mM): 100%
- prevention of MPTP induced dopamine loss, in words [9]: prevent MPTP induced dopamine loss
- Mean % Survival (S. aureus (ATCC 29213) [6]; [10]): 65%
- Mean % Survival (S. aureus (ATCC 29213) [6]; [11]): 78%
- Mean % Survival (S. aureus (ATCC 29213) [6]; 0.15 mM Diazoxide + 10 uM antidote): 78%
- Mean % Survival (S. aureus (ATCC 29213) [6]; 0.15 mM Diazoxide + 20 uM antidote): 75%
- Mean % Survival (S. aureus (ATCC 29213) [6]; substance alone 20 uM): 99%

SMILES: C[n+]1ccc(-c2cc[n+](C)cc2)cc1 [Paraquat]
- Mean % Survival (S. aureus (ATCC 29213) [8]; substance alone 0.5 mM, 60 minutes): 39%
- Mean % Survival (E. coli (ATCC 35150); substance alone 0.5 mM): 16%
- Mean % Survival (E. coli (ATCC 35150); substance alone 1 mM): 10%
